According to patent US20140031283A1, “ANTICANCER FUSION PROTEIN” (ADAMED SP. Z O.O., priority 2011, published 2014):
“And” between values parts separate entries of the source, which are not always exact repeats. Identical values can stand only once. Like-named read-outs stand apart in the source and are kept apart here.

What was measured:
A549 = experiment: MTT cytotoxicity test, A549 (human lung cancer); assay type: cell-based
Description: MTT assay is a colorimetric assay used to measure proliferation, viability and cytotoxicity of cells. It consists in decomposition of a yellow tetrazolium salt MTT (4,5-dimethyl-2-thiazolyl)-2,5-diphenyltetrazolium bromide) to the water-insoluble purple dye formazan by mitochondrial enzyme succinate-tetrazolium reductase 1. MTT reduction occurs only in living cells. Data analysis consists in determining IC50 concentration of the protein (in ng/ml), at which the 50% reduction in the number of cells occurs in the population treated compared to control cells. Results were analyzed using GraphPad Prism 5.0 software. The test was performed according to the literature descriptions (Cells, J E, (1998). Cell Biology, a Laboratory Handbook, second edition, Academic Press, San Diego; Yang, Y., Koh, L W, Tsai, J H., (2004); Involvement of viral and chemical factors with oral cancer in Taiwan, Jpn J Clin Oncol, 34 (4), 176-183). Cell culture medium was diluted to a defined density (10^4-10^5 cells per 100 μl). Then 100 μl of appropriately diluted cell suspension was applied to a 96-well plate in triplicates. Thus prepared cells were incubated for 24 h at 37° C. in 5% or 10% CO2, depending on the medium used, and then to the cells (in 100 μl of medium) further 100 μl of the medium containing various concentrations of tested proteins were added. In the case of combination hTRAIL114-281 and p21WAF effector protein, 100 μl of the medium containing mixture of hTRAIL114-281 and p21WAF effector protein in molar ratio 1:1 was added. After incubation of the cells with tested proteins over the period of next 72 hours, which is equivalent to 3-4 times of cell division, the medium with the test protein was added with […] of MTT working solution [5 mg/ml], and incubation was continued for 3 h at 37° C. in 5% CO2. Then the medium with MTT solution was removed, and formazan crystals were dissolved by adding 100 μl of DMSO. After stirring, the absorbance was measured at 570 nm (reference filter 690 nm). […]

Colo 205 = experiment: MTT cytotoxicity test, Colo 205 (human colorectal cancer); assay type: cell-based
Description: (§1) MTT assay is a colorimetric assay used to measure proliferation, viability and cytotoxicity of cells. It consists in decomposition of a yellow tetrazolium salt MTT (4,5-dimethyl-2-thiazolyl)-2,5-diphenyltetrazolium bromide) to the water-insoluble purple dye formazan by mitochondrial enzyme succinate-tetrazolium reductase 1. MTT reduction occurs only in living cells. Data analysis consists in determining IC50 concentration of the protein (in ng/ml), at which the 50% reduction in the number of cells occurs in the population treated compared to control cells. Results were analyzed using GraphPad Prism 5.0 software. The test was performed according to the literature descriptions (Cells, J E, (1998). Cell Biology, a Laboratory Handbook, second edition, Academic Press, San Diego; Yang, Y., Koh, L W, Tsai, J H., (2004); Involvement of viral and chemical factors with oral cancer in Taiwan, Jpn J Clin Oncol, 34 (4), 176-183). Cell culture medium was diluted to a defined density (10^4-10^5 cells per 100 μl). Then 100 μl of appropriately diluted cell suspension was applied to a 96-well plate in triplicates. […] After stirring, the absorbance was measured at 570 nm (reference filter 690 nm). […]

HT-29 = experiment: MTT cytotoxicity test, HT-29 (human colorectal cancer); assay type: cell-based; conditions: continuous incubation over 72 h, test MTT
Description: as §1

DU-145 = experiment: MTT cytotoxicity test, DU-145 (human prostate cancer); assay type: cell-based; conditions: continuous incubation over 72 h
Description: as §1

MCF-7 = experiment: MTT cytotoxicity test, MCF-7 (human breast cancer); assay type: cell-based; conditions: continuous incubation over 72 h
Description: as §1

MDA-MB-231 = experiment: MTT cytotoxicity test, MDA-MB-231 (human breast cancer); assay type: cell-based; conditions: continuous incubation over 72 h, test MTT
Description: as §1

MDA-MB-435s = experiment: MTT cytotoxicity test, MDA-MB-435s (human breast cancer); assay type: cell-based; conditions: continuous incubation over 72 h
Description: as §1

UM-UC-3 = experiment: MTT cytotoxicity test, UM-UC-3 (human bladder cancer); assay type: cell-based
Description: as §1

SW780 = experiment: MTT cytotoxicity test, SW780 (human bladder cancer); assay type: cell-based
Description: as §1

SW620 = experiment: MTT cytotoxicity test, SW620 (human colorectal cancer); assay type: cell-based; conditions: continuous incubation over 72 h, test MTT
Description: as §1

BxPC-3 = experiment: MTT cytotoxicity test, BxPC-3 (human pancreatic cancer); assay type: cell-based
Description: as §1

SK-OV-3 = experiment: MTT cytotoxicity test, SK-OV-3 (human ovarian cancer); assay type: cell-based; conditions: continuous incubation over 72 h
Description: as §1

NIH: OVCAR-3 = experiment: MTT cytotoxicity test, NIH: OVCAR-3 (human ovarian cancer); assay type: cell-based
Description: as §1

HepG2 = experiment: MTT cytotoxicity test, HepG2 (human liver hepatoma); assay type: cell-based; conditions: continuous incubation over 72 h, test MTT
Description: as §1

ACHN = experiment: MTT cytotoxicity test, ACHN (human kidney cancer); assay type: cell-based; conditions: continuous incubation over 72 h
Description: as §1

CAKI 1 = experiment: MTT cytotoxicity test, CAKI 1 (human kidney cancer); assay type: cell-based; conditions: continuous incubation over 72 h
Description: as §1

CAKI 2 = experiment: MTT cytotoxicity test, CAKI 2 (human kidney cancer); assay type: cell-based; conditions: continuous incubation over 72 h
Description: as §1

HT144 = experiment: MTT cytotoxicity test, HT144 (human melanoma cells); assay type: cell-based
Description: as §1

MES-SA/Dx5 = experiment: MTT cytotoxicity test, MES-SA/Dx5 (multidrug-resistant human uterine sarcoma); assay type: cell-based; conditions: Table 4, mean/SD part
Description: as §1

SK-MES-1 = experiment: MTT cytotoxicity test, SK-MES-1 (human lung cancer); assay type: cell-based; conditions: Table 4, mean/SD part
Description: as §1

Panc-1 = experiment: MTT cytotoxicity test, Panc-1 (human pancreatic cancer); assay type: cell-based; conditions: continuous incubation over 72 h, test MTT
Description: as §1

Panc03.27 = experiment: MTT cytotoxicity test, Panc03.27 (human pancreatic cancer); assay type: cell-based; conditions: continuous incubation over 72 h
Description: as §1

PLC/PRF/5 = experiment: MTT cytotoxicity test, PLC/PRF/5 (human liver hepatoma); assay type: cell-based; conditions: continuous incubation over 72 h, test MTT
Description: as §1

LNCaP = experiment: MTT cytotoxicity test, LNCaP (human prostate cancer); assay type: cell-based; conditions: Table 4, mean/SD part
Description: as §1

SK-Hep-1 = experiment: MTT cytotoxicity test, SK-Hep-1 (human liver hepatoma); assay type: cell-based; conditions: continuous incubation over 72 h
Description: as §1

A498 = experiment: MTT cytotoxicity test, A498 (human kidney cancer); assay type: cell-based; conditions: continuous incubation over 72 h
Description: as §1

HT1080 = experiment: MTT cytotoxicity test, HT1080 (human fibrosarcoma); assay type: cell-based; conditions: continuous incubation over 72 h
Description: as §1

Jurkat A3 = experiment: EZ4U cytotoxicity test, Jurkat A3 (human leukaemia); assay type: cell-based; conditions: continuous incubation over 72 h; heading prints test MTT
Protocol: EZ4U (Biomedica) test was used for testing cytotoxic activity of the proteins in nonadherent cell lines. The test is a modification of the MTT method, wherein formazan formed in the reduction of tetrazolium salt is water-soluble. Cell viability study was carried out after continuous 72-hour incubation of the cells with protein (seven concentrations of protein, each in triplicates). On this basis IC5O values were determined (as an average of two independent experiments) using the GraphPad Prism 5 software. Control cells were incubated with the solvent only.
The results of in vitro cytotoxicity tests are summarized as IC50 values (ng/ml), which corresponds to the protein concentration at which the cytotoxic effect of fusion proteins is observed at the level of 50% with respect to control cells treated only with solvent. Each experiment represents the average value of at least two independent experiments performed in triplicates. As a criterion of lack of activity of protein preparations the IC50 limit of 2000 ng/ml was adopted.

[1] = continuous incubation over 72 h, test MTT

Protocol for NCI-H460: Data analysis consists in determining IC50 concentration of the protein (in ng/ml), at which the 50% reduction in the number of cells occurs in the population treated compared to control cells. Results were analyzed using GraphPad Prism 5.0 software. […] Cell culture medium was diluted to a defined density (10^4-10^5 cells per 100 μl). Then 100 μl of appropriately diluted cell suspension was applied to a 96-well plate in triplicates. Thus prepared cells were incubated for 24 h at 37° C. in 5% or 10% CO2, depending on the medium used, and then to the cells (in 100 μl of medium) further 100 μl of the medium containing various concentrations of tested proteins were added. […] After incubation of the cells with tested proteins over the period of next 72 hours, which is equivalent to 3-4 times of cell division, the medium with the test protein was added with 20 ml of MTT working solution [5 mg/ml], and incubation was continued for 3 h at 37° C. in 5% CO2. Then the medium with MTT solution was removed, and formazan crystals were dissolved by adding 100 μl of DMSO. After stirring, the absorbance was measured at 570 nm (reference filter 690 nm).

With `CC[C@H](C)[C@H](NC(=O)[C@H](CC(C)C)NC(=O)[C@H](CCCNC(=N)N)NC(=O)[C@H](CCCNC(=N)N)NC(=O)[C@H](CCCCN)NC(=O)[C@H](CO)NC(=O)[C@H](Cc1c[nH]cn1)NC(=O)[C@H](Cc1ccc(O)cc1)NC(=O)[C@H](Cc1ccccc1)NC(=O)[C@H](CC(=O)O)NC(=O)[C@@H](NC(=O)[C@H](C)NC(=O)[C@H](CO)NC(=O)[C@@H](NC(=O)[C@H](CCC(N)=O)NC(=O)[C@H](CCCNC(=N)N)NC(=O)[C@H](CCCNC(=N)N)NC(=O)[C@@H](N)CCCCN)[C@@H](C)O)[C@@H](C)O)C(=O)N[C@@H](Cc1ccccc1)C(=O)N[C@@H](CO)C(=O)O` [peptide derived from p21WAF] the “A549 IC50” value (A549; 72 h) was greater than 1000 mg/L, the “NCI-H460 IC50” value (NCI-H460; 72 h) was greater than 1000 mg/L and the “HCT116 IC50” value (HCT-116; 72 h) was greater than 1000 mg/L.
With TRAIL 95-281 the “COLO205 IC50” value (Colo 205; [1]) was 0.05902 mg/L, the “HT29 IC50” value (HT-29) was greater than 2 mg/L and the “DU145 IC50” value (DU-145) was greater than 2 mg/L. The “MCF 7 IC50” value (MCF-7) was greater than 2 mg/L, the “MDA-MB-231 IC50” value (MDA-MB-231) was greater than 2 mg/L and the “MDA-MB-435s IC50” value (MDA-MB-435s) was greater than 2 mg/L. The “UM-UC-3 IC50” value (UM-UC-3; [1]) was greater than 2 mg/L, the “SW780 IC50” value (SW780; [1]) was 0.12 mg/L and the “SW620 IC50” value (SW620) was greater than 2 mg/L. For the same compound, the “BxPC3 IC50” value (BxPC-3; [1]) was 0.06061 mg/L, the “SK-OV-3 IC50” value (SK-OV-3) was greater than 2 mg/L and the “OV-CAR-3 IC50” value (NIH: OVCAR-3; [1]) was 0.963 mg/L. For the same compound, the “HepG2 IC50” value (HepG2) was greater than 2 mg/L, the “ACHN IC50” value (ACHN) was greater than 2 mg/L and the “CAKI 1 IC50” value (CAKI 1) was 0.3953 mg/L. The “CAKI 2 IC50” value (CAKI 2) was greater than 2 mg/L, the “HT144 IC50” value (HT144; [1]) was 0.0341 mg/L and the “A549 IC50” value (A549; [1]) was greater than 2 mg/L. For the same compound, the “HCT116 IC50” value (HCT-116; [1]) was greater than 2 mg/L.
For rhTRAIL 95-281, the “COLO 205 mean (IC50)” value (Colo 205; Table 4, mean/SD part) was 0.0249 mg/L, the “UM-UC-3 mean (IC50)” value (UM-UC-3; Table 4, mean/SD part) was 2.242 mg/L and 2.241 mg/L and the “SW780 mean (IC50)” value (SW780; Table 4, mean/SD part) was 0.12 mg/L. The “BxPC3 mean (IC50)” value (BxPC-3; Table 4, mean/SD part) was 0.06471 mg/L, the “OVCAR-3 mean (IC50)” value (NIH: OVCAR-3; Table 4, mean/SD part) was 0.963 mg/L and the “HT 144 mean (IC50)” value (HT144; Table 4, mean/SD part) was 1.7335 mg/L. For the same compound, the “MES-SA/Dx5 mean (IC50)” value (MES-SA/Dx5) was 0.02915 mg/L, the “SK-MES-1 mean (IC50)” value (SK-MES-1) was 0.0336 mg/L and the “Panc-1 IC50” value (Panc-1) was greater than 2 mg/L. The “Panc03.27 IC50” value (Panc03.27) was 0.315 mg/L, the “PLC/PRF/5 IC50” value (PLC/PRF/5) was greater than 2 mg/L and the “LNCaP mean (IC50)” value (LNCaP) was 2.0515 mg/L. The “SK Hep-1 IC50” value (SK-Hep-1) was greater than 2 mg/L, the “A498 IC50” value (A498) was 1.611 mg/L and the “HT1080 IC50” value (HT1080) was greater than 2 mg/L. For the same compound, the “JURKAT A3 IC50” value (Jurkat A3) was greater than 2 mg/L, the “NCI-H460 mean (IC50)” value (NCI-H460; Table 4, mean/SD part) was 5.8885 mg/L and 5.888 mg/L and the “NCI-H460 IC50” value (NCI-H460; [1]) was 0.4382 mg/L. The “HCT116 mean (IC50)” value (HCT-116; Table 4, mean/SD part) was 7.558 mg/L.
